How the values were obtained:
Assay in all cases: relative viability (nuclei count vs DMSO), 5 days (fraction); higher = more cells survive
GW-2580 + Tozasertib = compound: COC1=CC=C(C=C1)COC2=C(C=C(C=C2)CC3=CN=C(N=C3N)N)OC [GW-2580] + Cc1cc(Nc2cc(N3CCN(C)CC3)nc(Sc3ccc(NC(=O)C4CC4)cc3)n2)n[nH]1 [Tozasertib] (partner 0.1 µM)
In short: (§1)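 Cells from lung cancer lines were seeded into 1536-well plates and, one day later, dosed by pin tool. Treatments were either a single drug or a fixed dose of an anchor drug with five library-drug doses (not always all listed) in √10 steps. After 5 days, nuclei were stained in a one-step fixation (final 0.05% Triton X-100, 1% formaldehyde, 1 ug/ml Hoechst) and counted on 4× images, and relative viability is the treated-to-vehicle nuclei ratio, as the median of duplicate plates.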

GW-2580 + Olaparib = compound: COC1=CC=C(C=C1)COC2=C(C=C(C=C2)CC3=CN=C(N=C3N)N)OC [GW-2580] + O=C(c1cc(Cc2n[nH]c(=O)c3ccccc23)ccc1F)N1CCN(C(=O)C2CC2)CC1 [Olaparib] (partner 8 µM)
In short: as §1

Fedratinib + Pictilisib = compound: Cc1cnc(Nc2ccc(OCCN3CCCC3)cc2)nc1Nc1cccc(S(=O)(=O)NC(C)(C)C)c1 [Fedratinib] + CS(=O)(=O)N1CCN(Cc2cc3nc(-c4cccc5[nH]ncc45)nc(N4CCOCC4)c3s2)CC1 [Pictilisib] (partner 1 µM)
In short: as §1

Fedratinib + AZD7762 = compound: Cc1cnc(Nc2ccc(OCCN3CCCC3)cc2)nc1Nc1cccc(S(=O)(=O)NC(C)(C)C)c1 [Fedratinib] + NC(=O)Nc1cc(-c2cccc(F)c2)sc1C(=O)N[C@H]1CCCNC1 [AZD7762] (partner 0.2 µM)
In short: as §1

GW-2580 + Luminespib = compound: COC1=CC=C(C=C1)COC2=C(C=C(C=C2)CC3=CN=C(N=C3N)N)OC [GW-2580] + CCNC(=O)c1noc(-c2cc(C(C)C)c(O)cc2O)c1-c1ccc(CN2CCOCC2)cc1 [Luminespib] (partner 0.01 µM)
In short: as §1

Row | Cell Line | relative viability (GW-2580 + Tozasertib; first compound 0.08 µM) | relative viability (GW-2580 + Tozasertib; first compound 0.8 µM) | relative viability (GW-2580 + Tozasertib; first compound 2.53 µM) | relative viability (GW-2580 + Tozasertib; first compound 8 µM) | relative viability (GW-2580 + Olaparib; first compound 0.08 µM) | relative viability (GW-2580 + Olaparib; first compound 0.8 µM) | relative viability (GW-2580 + Olaparib; first compound 2.53 µM) | relative viability (GW-2580 + Olaparib; first compound 8 µM) | relative viability (Fedratinib + Pictilisib; first compound 0.1 µM) | relative viability (Fedratinib + Pictilisib; first compound 1 µM) | relative viability (Fedratinib + AZD7762; first compound 0.1 µM) | relative viability (Fedratinib + AZD7762; first compound 0.3162 µM) | relative viability (Fedratinib + AZD7762; first compound 1 µM) | relative viability (Fedratinib + Pictilisib; first compound 0.3162 µM) | relative viability (GW-2580 + Luminespib; first compound 0.08 µM) | relative viability (GW-2580 + Luminespib; first compound 0.8 µM) | relative viability (GW-2580 + Luminespib; first compound 2.53 µM) | relative viability (GW-2580 + Luminespib; first compound 8 µM)
1 | HCC-78 | 0.253 | 0.357 | 0.401 | 0.314 | 0.818 | 0.919 | 0.757 | 0.861 | 0.227 | 0.226 | 0.582 | 0.526 | 0.497 |  |  |  |  | 
2 | IA-LM |  |  |  |  | 0.844 | 1 | 0.853 | 0.756 | 0.26 | 0.199 |  |  |  | 0.288 |  |  |  | 
3 | COR-L23 | 0.209 | 0.202 | 0.179 | 0.185 | 0.422 | 0.375 | 0.294 | 0.406 | 0.891 | 0.707 |  |  |  | 0.809 | 0.875 | 0.774 | 0.828 | 0.808
4 | NCI-H2023 | 0.475 | 0.431 | 0.522 | 0.342 | 0.541 | 0.589 | 0.457 | 0.511 | 0.245 | 0.0814 |  |  |  | 0.246 | 0.932 | 1.07 | 1.26 | 0.717
5 | COR-L 105 | 0.317 | 0.311 | 0.352 | 0.387 | 0.658 | 0.633 | 0.909 | 0.68 | 0.364 | 0.284 |  |  |  | 0.471 | 0.63 | 0.588 | 0.681 | 0.647
6 | NCI-H520 | 0.421 | 0.459 | 0.443 | 0.46 | 0.3 | 0.416 | 0.337 | 0.342 | 0.267 | 0.215 |  |  |  | 0.315 | 0.224 | 0.202 | 0.196 | 0.274
7 | NCI-H1792 |  |  |  |  | 0.596 | 0.929 | 0.255 | 0.44 | 0.257 | 0.227 | 0.58 | 0.774 | 0.483 | 0.289 | 0.503 | 0.444 | 0.567 | 0.411
8 | SK-LU-1 | 0.362 | 0.338 | 0.272 | 0.292 | 0.431 | 0.497 | 0.389 | 0.503 | 0.514 | 0.285 |  |  |  | 0.489 | 0.206 | 0.183 | 0.212 | 0.206
9 | NCI-H2342 | 0.557 | 0.498 | 0.516 | 0.418 | 0.397 | 0.59 | 0.382 | 0.382 |  |  | 0.443 | 0.528 | 0.56 |  | 0.788 | 0.77 | 0.859 | 0.714
10 | NCI-H1299 |  |  |  |  | 1.05 | 0.965 | 0.922 | 0.876 | 0.629 | 0.529 |  |  |  | 0.688 |  |  |  | 
11 | NCI-H1650 | 0.455 | 0.543 | 0.452 | 0.363 | 0.704 | 0.951 | 0.719 | 0.774 | 0.355 | 0.155 |  |  |  | 0.571 | 0.195 | 0.195 | 0.197 | 0.182
12 | NCI-H2009 | 0.744 | 0.828 | 0.715 | 0.707 | 0.752 | 0.698 | 0.918 | 0.645 | 0.699 | 0.143 |  |  |  | 0.919 | 1.15 | 1.11 | 0.999 | 0.876
13 | SW 900 | 0.572 | 0.559 | 0.6 | 0.559 | 0.864 | 1.03 | 0.994 | 0.747 |  |  | 0.621 | 0.692 | 0.608 |  | 0.17 | 0.182 | 0.161 | 0.146
14 | SK-MES-1 | 1.06 | 1.06 | 0.88 | 0.816 | 0.79 | 0.795 | 0.603 | 0.777 | 0.314 | 0.283 |  |  |  | 0.38 | 0.869 | 0.989 | 0.701 | 0.83
15 | NCI-H1648 | 0.427 |  |  | 0.429 | 1.34 |  | 0.666 | 0.764 |  |  | 0.818 | 0.558 | 0.548 |  |  |  |  | 
16 | NCI-H522 | 0.551 | 0.579 | 0.318 | 0.541 | 0.623 | 0.608 | 0.611 | 0.602 |  |  | 0.829 | 0.851 | 0.77 |  | 1.22 | 1.57 | 1.14 | 1.24
17 | HCC-366 | 0.102 | 0.146 | 0.12 | 0.19 | 0.379 | 0.526 | 0.387 | 0.417 | 0.136 | 0.19 | 0.326 | 0.234 | 0.188 | 0.0976 |  |  |  | 
18 | A549 |  |  |  |  | 0.396 | 0.527 | 0.267 | 0.301 | 0.531 | 0.434 |  |  |  | 0.465 |  |  |  | 
19 | NCI-H661 | 0.34 | 0.344 | 0.367 | 0.336 | 0.807 | 0.813 | 0.722 | 0.665 | 0.404 | 0.329 |  |  |  | 0.355 | 0.978 | 0.996 | 0.931 | 0.704
20 | NCI-H1563 |  |  |  |  |  |  |  |  | 0.608 | 0.712 |  |  |  | 0.711 | 0.546 | 0.522 | 0.484 | 0.545
